Patent publication US20200077648A1, “PHENOXYPHENYLAMIDINES AND THE USE THEREOF AS FUNGICIDES” (priority 2016, published 2020)

test: Log P measurement by HPLC on reversed phase columns (EEC directive 79/831 Annex V.A8; methods [a], [b], [c]); assay type: physicochemical; conditions: method [a]: LC-UV, acidic range, 0.1% formic acid in water and acetonitrile as eluent
Experimental: If more than one Log P value is available within the same method, all the values are given and separated by “+”. […] Lambda-max-values were determined using UV-spectra from 200 nm to 400 nm and the peak values of the chromatographic signals.

Compound | LogP
CCN(C)C=Nc1cc(C)c(Oc2ccccc2Cl)cc1C(F)F [Example 39] | 1.88^[a]
CCN(C)C=Nc1cc(I)c(Oc2ccccc2Cl)cc1C [Example 58] | 1.72^[a]
CCN(C)C=Nc1cc(Br)c(Oc2ccccc2C)cc1C [Example 43] | 1.72^[a]
CCc1cc(Oc2ccccc2)c(Br)cc1N=CN(C)C [Example 35] | 1.37^[a];
Cc1cc(N=CN(C)C(C)C)c(Br)cc1Oc1ccccc1F [Example 63] | 1.63^[a]
Cc1cc(Oc2ccccc2F)c(C)cc1N=CN(C)C [Example 66] | 1.43^[a]
CCN(C)C=Nc1cc(Cl)c(Oc2cccc(Cl)c2F)cc1C [Example 50] | 1.83^[a]
Cc1cc(N=CN(C)C)c(Cl)cc1Oc1ccccc1Br [Example 37] | 1.55^[a];
CCN(C)C=Nc1cc(C(F)F)c(Oc2ccccc2F)cc1C [Example 54] | 1.49^[a]
CCN(C)C=Nc1cc(C)c(Oc2ccccc2C)cc1OC [Example 15] | 1.60^[a];
CCN(C)C=Nc1cc(C)c(Oc2ccccc2F)cc1OC [Example 14] | 1.46^[a];
CCN(C)C=Nc1cc(I)c(Oc2ccccc2Br)cc1C [Example 57] | 1.75^[a]
Cc1cc(N=CN(C)C)c(Cl)cc1Oc1ccccc1F [Example 60] | 1.37^[a]
CCN(C)C=Nc1cc(C)c(Oc2ccccc2Br)cc1Cl [Example 29] | 1.80^[a];
CCN(C)C=Nc1cc(C)c(Oc2ccccc2C)cc1C(F)(F)F [Example 28] | 1.96^[a]
CCN(C)C=Nc1cc(C)c(Oc2ccccc2)cc1C#N [Example 13] | 1.58^[a];
CCN(C)C=Nc1cc(C)c(Oc2cccc(Cl)c2F)cc1Cl [Example 3] | 1.88^[a]
CCN(C)C=Nc1cc(Cl)c(Oc2ccccc2C#N)cc1C [Example 18] | 1.21^[a]
CCN(C)C=Nc1cc(Br)c(Oc2ccccc2Cl)cc1C [Example 45] | 1.79^[a]
CCN(C)C=Nc1cc(C)c(Oc2ccccc2)cc1C(F)(F)F [Example 22] | 1.89^[a]
CCN(C)C=Nc1cc(C)c(Oc2cccc(Cl)c2)cc1Cl [Example 49] | 1.84^[a]
CCN(C)C=Nc1cc(C)c(Oc2ccccc2C2CC2)cc1C [Example 11] | 2.09^[a]

Compound | LogP
CCN(C)C=Nc1cc(C2CC2)c(Oc2ccccc2F)cc1C [Example 52] | 1.75^[a]
CCN(C)C=Nc1cc(I)c(Oc2ccccc2C)cc1C [Example 59] | 1.78^[a]
CCc1ccccc1Oc1cc(C)c(N=CN(C)CC)cc1C [Example 10] | 2.06^[a]
CCN(C)C=Nc1cc(C)c(Oc2ccccc2C)cc1C(F)F [Example 6] | 1.72^[a]
CCN(C)C=Nc1cc(C)c(Oc2ccccc2I)cc1C(F)(F)F [Example 26] | 2.28^[a]
CCN(C)C=Nc1cc(C)c(Oc2ccccc2C#N)cc1Cl [Example 17] | 1.21^[a]
CCN(C)C=Nc1cc(C)c(Oc2cccc(Cl)c2)cc1C [Example 1] | 1.86^[a]
CCN(C)C=Nc1cc(C)c(Oc2ccccc2F)cc1C(F)(F)F [Example 24] | 1.89^[a]
CCN(C)C=Nc1cc(Br)c(Oc2ccccc2I)cc1C [Example 47] | 1.92^[a]
Cc1cc(Oc2ccc(F)cc2)c(C)cc1N=CN(C)C(C)C [Example 4] | 1.66^[a];
CCN(C)C=Nc1cc(C(F)(F)F)c(Oc2ccccc2C)cc1C [Example 33] | 1.96^[a]
CCN(C)C=Nc1cc(C)c(Oc2ccccc2C#N)cc1C(F)(F)F [Example 27] | 1.63^[a]
CCN(C)C=Nc1cc(C)c(Oc2ccccc2C#N)cc1C(F)F [Example 38] | 1.55^[a]
CCN(C)C=Nc1cc(Br)c(Oc2ccccc2Br)cc1C [Example 46] | 1.84^[a]
Cc1cc(Oc2ccccc2)c(I)cc1N=CN(C)C [Example 32] | 1.61^[a];
Cc1cc(N=CN(C)C)c(Br)cc1Oc1ccccc1F [Example 61] | 1.39^[a]
CCN(C)C=Nc1cc(C)c(Oc2ccccc2Br)cc1C(F)(F)F [Example 25] | 2.17^[a]
Cc1cc(N=CN(C)C(C)C)c(Cl)cc1Oc1ccccc1F [Example 62] | 1.61^[a]
CCN(C)C=Nc1cc(C)c(Oc2ccccc2Br)cc1C(F)F [Example 40] | 1.94^[a]
CCN(C)C=Nc1cc(C)c(Oc2ccccc2)cc1C1CC1 [Example 51] | 1.75^[a]
CCN(C)C=Nc1cc(C)c(Oc2ccccc2Cl)cc1C(F)(F)F [Example 23] | 2.08^[a]
CCN(C)C=Nc1cc(C)c(Oc2cccc(Cl)c2F)cc1C [Example 53] | 1.89^[a]

same assay, conditions: method [a]: LC-UV, acidic range, 0.1% formic acid in water and acetonitrile as eluent (linear gradient 10% to 95% acetonitrile)

Compound | LogP
CCN(C)C=Nc1cc(C)c(Oc2ccccc2C(=O)N(C)C)cc1Cl [Example 91] | 0.97^[a]
CCN(C)C=Nc1cc(C)c(Oc2ccccc2)cc1C(=O)N(C)C [Example 87] | 1.21^[a]
CCN(C)C=Nc1cc(C)c(Oc2ccccc2N(C)C)cc1Br [Example 100] | 1.07^[a]
CCN(C)C=Nc1cc(C)c(Oc2ccccc2)cc1N(C)C [Example 82] | 1.58^[a]
CCN(C)C=Nc1cc(C)c(Oc2ccccc2S(C)(=O)=O)cc1Br [Example 123] | 0.94^[a]
Cc1cc(Oc2ccccc2C#N)c(C)cc1N=CN(C)C [Example 70] | 1.25^[a]
CCN(C)C=Nc1cc(C)c(Oc2cc(F)ccc2C#N)cc1C [Example 84] | 1.29^[a]
CCN(C)C=Nc1cc(C)c(Oc2ccccc2N(C)C)cc1C [Example 85] | 0.55^[a]
CCc1cc(N=CN(C)CC)c(C)cc1Oc1ccccc1C#N [Example 108] | 1.59^[a]
CCN(C)C=Nc1cc(C)c(Oc2ccccc2)cc1C#N [Example 72] | 1.53^[a]
CCN(C)C=Nc1cc(C)c(Oc2ccccc2)cc1C1CC1 [Example 113] | 1.58^[a]
CCN(C)C=Nc1cc(C)c(Oc2ccccc2I)cc1Br [Example 99] | 2.03^[a]
CCN(C)C=Nc1cc(C)c(Oc2cccc(F)c2Br)cc1Cl [Example 79] | 1.66^[a]

Results, then the molecule that gave them:

LogP | Compound
1.58^[a] | CCN(C)C=Nc1cc(C)c(Oc2cccc(F)c2C#N)cc1Br [Example 104]
1.75^[a] | CCN(C)C=Nc1cc(C(C)C)c(Oc2ccccc2F)cc1C [Example 121]
1.44^[a] | C#Cc1cc(Oc2ccccc2F)c(C)cc1N=CN(C)CC [Example 112]
1.78^[a] | CCN(C)C=Nc1cc(C)c(Oc2ccccc2C2CC2)cc1Cl [Example 74]
1.69^[a] | C=Cc1ccccc1Oc1cc(Cl)c(N=CN(C)CC)cc1C [Example 89]
1.24^[a] | CCN(C)C=Nc1cc(C)c(Oc2ccccc2F)cc1C(=O)N(C)C [Example 117]
1.32^[a] | CCN(C)C=Nc1cc(C)c(Oc2cccc(F)c2C#N)cc1C [Example 80]
1.75^[a] | CCN(C)C=Nc1cc(C)c(Oc2cccc(F)c2C)cc1Br [Example 95]
1.97^[a] | Cc1cc(Oc2ccccc2Br)c(C)cc1N=CN(C)C(C)C [Example 69]
1.63^[a] | CCN(C)C=Nc1cc(C)c(Oc2ccccc2Br)cc1C [Example 83]
1.82^[a] | CCN(C)C=Nc1cc(C)c(Oc2ccccc2SC)cc1Br [Example 103]
1.58^[a] | CCN(C)C=Nc1cc(C)c(Oc2ccccc2F)cc1N(C)C [Example 81]
2.26^[a] | CCN(C)C=Nc1cc(C)c(Oc2ccccc2C(C)C)cc1Br [Example 98]
0.78^[a] | CCN(C)C=Nc1cc(C)c(Oc2ccccc2N(C)C)cc1Cl [Example 76]
1.66^[a] | C=C(C)c1cc(Oc2ccccc2F)c(C)cc1N=CN(C)CC [Example 97]
1.72^[a] | CCN(C)C=Nc1cc(C)c(Oc2cccc(F)c2C)cc1C [Example 86]

LogP | Compound
1.81^[a] | CCN(C)C=Nc1cc(C)c(Oc2ccccc2C(F)(F)F)cc1Cl [Example 90]
1.55^[a] | CCN(C)C=Nc1cc(C)c(Oc2ccccc2SC)cc1C [Example 115]
1.55^[a] | CCN(C)C=Nc1cc(C)c(Oc2ccccc2C(F)F)cc1Cl [Example 78]
1.38^[a] | CCN(C)C=Nc1cc(C2CC2)c(Oc2ccccc2C#N)cc1C [Example 119]
0.94^[a] | CCN(C)C=Nc1cc(C)c(Oc2ccccc2[S+](C)[O-])cc1C (stereo not shown) [Example 116]
1.02^[a] | CCN(C)C=Nc1cc(C)c(Oc2ccccc2[S+](C)[O-])cc1Br (stereo not shown) [Example 101]
1.84^[a] | CCN(C)C=Nc1cc(C)c(Oc2ccccc2C2CC2)cc1Br [Example 94]
1.44^[a] | C#Cc1cc(Oc2ccccc2)c(C)cc1N=CN(C)CC [Example 111]
1.83^[a] | CCN(C)C=Nc1cc(C)c(Oc2ccccc2F)cc1C1CC1 [Example 110]
1.41^[a] | Cc1cc(Oc2ccccc2C#N)c(I)cc1N=CN(C)C(C)C [Example 426]
1.66^[a] | Cc1cc(Oc2ccccc2Br)c(C)cc1N=CN(C)C [Example 68]
1.63^[a] | C=C(C)c1cc(Oc2ccccc2)c(C)cc1N=CN(C)CC [Example 96]
1.27^[a] | CCN(C)C=Nc1cc(C)c(Oc2ccccc2C#N)cc1Br [Example 92]
1.60^[a] | C=C(C)c1cc(N=CN(C)CC)c(C)cc1Oc1ccccc1C#N [Example 109]
0.91^[a] | CCN(C)C=Nc1cc(C)c(Oc2ccccc2S(C)(=O)=O)cc1Cl [Example 75]

same assay, conditions: method [b]: LC-UV, neutral range, 0.001 molar ammonium acetate solution in water and acetonitrile as eluent

Compound | LogP
CCc1cc(Oc2ccccc2)c(Br)cc1N=CN(C)C [Example 35] | 4.29^[b]
Cc1cc(N=CN(C)C)c(Cl)cc1Oc1ccccc1Br [Example 37] | 4.47^[b]
CCN(C)C=Nc1cc(C)c(Oc2ccccc2C)cc1OC [Example 15] | 5.53^[b]
CCN(C)C=Nc1cc(C)c(Oc2ccccc2F)cc1OC [Example 14] | 4.33^[b]
CCN(C)C=Nc1cc(C)c(Oc2ccccc2Br)cc1Cl [Example 29] | 4.93^[b]
CCN(C)C=Nc1cc(C)c(Oc2ccccc2)cc1C#N [Example 13] | 3.78^[b]
Cc1cc(Oc2ccc(F)cc2)c(C)cc1N=CN(C)C(C)C [Example 4] | 5.63^[b]
Cc1cc(Oc2ccccc2)c(I)cc1N=CN(C)C [Example 32] | 4.51^[b]

same assay, conditions: reversed phase HPLC column; method [a]: LC-UV, acidic range, 0.1% formic acid in water and acetonitrile as eluent

chromatographic logP | Compound
1.69 | CCN(C)C=Nc1cc(C)c(Oc2ccccc2F)cc1C1CC1 [Example 34, N′-[2-cyclopropyl-4-(2-fluorophenoxy)-5-methyl-phenyl]-N-ethyl-N-methyl-formamidine]
